Laboratory results: patent US12161089B2, “Parasiticidal collar comprising isoxazoline compounds” (Boehringer Ingelheim Animal Health USA Inc., priority 2020, dated 2024)

Experiments:
Ctenocephalides felis = assay: In-vitro flea exposure effectiveness (contact with collar strips or treated filter papers); details: filter paper 21 cm^2 loaded with 500 μL of 10 mg/mL in acetone, 24 (±1) hours; for Geometric Mean No. Live Fleas: 3 vials; for Percentage Reduction Live Fleas: versus acetone only control; for Vial 1 # Live Fleas / Vial 2 # Live Fleas / Vial 3 # Live Fleas: approximately 20 fleas
Experimental: The in-vitro susceptibility of Ctenocephalides felis exposed to treated filter papers and to external device compositions (antiparasitic collar) containing isoxazoline active agents (S)-Ia, (S)-Id and (Ia) was determined, wherein the collars comprise a polyvinyl chloride (PVC) matrix or a polybutylene succinate (PBS) matrix.
To determine the in-vitro susceptibility of Ctenocephalides felis exposed to treated filter papers or to the collars compositions comprising the isoxazoline active agent, approximately 20 fleas were transferred to vials containing either the collars or filter papers in accordance with the test groups outlined in Table 3. On Day 0, approximately 20 fleas were placed in 27×55 mm, 5 dram glass vials containing the collars comprising the active agent as outlined in Table 3 or in 60 mm×40 mm glass vials containing treated filter papers. The filter papers tested in groups 9-12 were loaded with 500 μL of a 10 mg/mL solution containing the active agent dissolved in acetone. […] Test vials were placed in an environmental chamber at approximately 28° C. and approximately 80% RH.
The number of dead fleas in each vial were counted on Day 1 at 24 (±1) hours after initial exposure. Fleas were counted as dead if they were not able to maintain an upright posture.

[1] = Plasma drug concentrations in dogs wearing PVC based isoxazoline collars; type: in vivo, dog; details: 11% active, FIG. 5
Experimental: PK data: Blood samples from all the dogs were taken periodically and drug concentrations in the plasma were analyzed (depicted in FIG. 5). […] In other words, these compounds are likely acting by a systemic mechanism, even though they are applied in a topical collar dosage form. These PK data appear also to correlate with the flea and tick efficacy data in Table 6 and 7 (e.g., compound (S)-Ia is the best, (S)-Id is the second, and Ia the third).

[2] = Isoxazoline compounds in dog hair; type: in vivo; details: hair collected on Day 110 from 5 areas, PVC collars, FIG. 6
Text: Hair samples from each dog were collected on Day 110 from 5 different areas: (1) central thorax, (2) lower back/caudal region, (3) right thorax, (4) left thorax, and […] top of neck/base of skull above collar site. Suitable bioanalytical methods were used for analysis of the three isoxazoline compounds in dog hair. […] Results for the other two isoxazoline compounds Ia and (S)-Ia are very similar.

SMILES	Geometric Mean No. Live Fleas (Ctenocephalides felis)	Percentage Reduction Live Fleas (Ctenocephalides felis) [%]	Vial 1 # Live Fleas (Ctenocephalides felis)	Vial 2 # Live Fleas (Ctenocephalides felis)	Vial 3 # Live Fleas (Ctenocephalides felis)	PK data, order of the compounds (correlating with flea and tick efficacy) [1]	Level of the drug in dog hair, top of the neck (collar site) compared with other areas [2]	Isoxazoline compound levels in hair throughout bodies of the dogs [2]
O=C(CNC(=O)c1ccc(C2=NOC(c3cc(Cl)cc(C(F)(F)F)c3)(C(F)(F)F)C2)c2ccccc12)NCC(F)(F)F (centres unmarked) [(Ia), 4-[5-[3-chloro-5-(trifluoromethyl)phenyl]-4,5-dihydro-5-(trifluoromethyl)-3-isoxazolyl]-N-[2-oxo-2-[(2,2,2-trifluoroethyl)amino]ethyl]-1-naphthalanecarboxamide]	19.6	3.3	19	21	19	the third	very similar	
O=C(CNC(=O)c1ccc(C2=NO[C@@](c3cc(Cl)cc(C(F)(F)F)c3)(C(F)(F)F)C2)c2ccccc12)NCC(F)(F)F [(S)-Ia]	19.0	6.5	19	20	18	the best	very similar	
O=C(CNC(=O)c1ccc(C2=NO[C@@](c3cc(Cl)c(F)c(C(F)(F)F)c3)(C(F)(F)F)C2)c2ccccc12)NCC(F)(F)F [(S)-Id]						the second	highest level of the drug	detectable
